Source: patent US11028127B2, “Peptides capable of reactivating p53 mutants” (Yeda Research and Development Co. Ltd., priority 2013, dated 2021)
Where no end group is shown, it is not given here.

Assays:
[1] = test system: SKBR3 breast cancer cells (Mut-p53, position 175); assay: Crystal violet viability assay; assay type: cell-based; settings: shCon cells
Description: (§1) FIGS. 15A and 15B are bar graphs illustrating the effect of the various indicated peptides on the viability of breast cancer cells expressing different Mut-p53 isoforms, as determined by crystal violet assay. FIG. 15A: MDA-MB-231 cells expressing Mut-p53 with a mutation at position 280 of the DBD. FIG. 15B: SKBR3 cells expressing Mut-p53 with mutation at position 175 within the DBD. The bar graphs in FIGS. 15A and 15B show for each tested peptide the optical density reads at 595 nm, reflecting the number of cells in the plate after treatment, normalized to the non-treated (NT) samples.
(§2) Cells were cultured in 96 wells plates with 2500-4000 cells/well in 0.1 ml and incubated overnight at 37° C. in order to adhere to the plate. Serial dilutions of different peptides (0.5 μg/ml) were added in 0.1 ml aliquots and the plates incubated for additional 48 h at 37° C. Then medium was removed and cell lysis was determined by staining the cells with crystal violet (0.5%) in methanol/water (1:4, v/v), 50 μl each well, for 10 min, followed by 3 washes with PBS. Afterwards, 10% acetic acid (50 μl) was added to each well and shaken for 10 min. Then, automatic plate reading was performed at 595 nm.
(§3) Experiments using different cancer cell lines expressing endogenously different p53 mutant isoforms were performed. FIGS. 15A and 15B illustrate two representative experiments performed on MDA-MB-231 (FIG. 15A) and SKBR3 (FIG. 15B) breast cancer cells expressing Mut-p53 with mutations at positions 280 or 175, respectively, within the DNA Binding Domain (DBD). To examine the peptides' specificity for Mut-p53, the control used was such cells with a knockdown of Mut-p53 (shp53).

[2] = test system: MDA-MB-231 breast cancer cells (Mut-p53, position 280); assay: Crystal violet viability assay; assay type: cell-based; settings: shCon cells
Description: as §1, §2, §3

Solubility in DMSO = assay type: physicochemical; settings: at a concentration of 10 mg/ml
Description: Addition of a poly arginine tail to peptides dramatically increases the solubility of peptides with a high content of hydrophobic amino acids. […] Lead peptides were further subjected to rigorous examination of effects on cell viability in a Mut-p53 specific manner.

[3] = test system: ES2 ovarian carcinoma cells (Mut-p53, position 241); assay: qRT-PCR of p53 target genes (p21, PUMA, CD95, Btg-2); assay type: cell-based; settings: 12 ug/ml, over non-treated cells
Description: (§4) FIGS. 17A, 17B, 17C and 17D illustrate representative experiments performed on ES2 ovarian carcinoma cells expressing Mut-p53 mutated at position 241 within the DBD. […] Cells were harvested and an apoptosis assay (FIGS. 17A and 17B) was performed using the Annexin-V staining kit (Roche, REF 11 988 549 001). Non-fixed cells were stained with both anti Annexin FITC conjugated antibody to detect apoptotic cells, and PI (propidium iodide) to stain dead cells, according to the manufacturer's instructions. Stained cells were then analyzed by flow cytometry. A total of 10,000 cells was counted for each sample and divided into four sub populations according to staining intensity; cells negative for both PI and Annexin (−PI, −Annexin) are termed live; cells negative for PI and positive for Annexin (−PI, +Annexin) are going through early stages of apoptosis; cells positive for PI and Annexin (+PI, +Annexin) are dead cells that underwent an apoptotic process; and cells positive for PI and negative for Annexin (+PI, −Annexin) are assumed as dead cells that died by a non-apoptotic process such as necrosis.
FIGS. 17A and 17B illustrate a representative experiments performed on ES2 ovarian carcinoma cells (FIGS. 17A-D) expressing Mut-p53 with a mutation at positions 241 within the DBD. […] Stained cells were then analyzed by flow cytometry. […]

[4] = test system: ES2 ovarian carcinoma cells (Mut-p53, position 241); assay: Annexin-V/PI apoptosis assay by flow cytometry; assay type: cell-based; settings: 12 ug/ml
Description: as §4
FIGS. 17A and 17B illustrate a representative experiments performed on ES2 ovarian carcinoma cells (FIGS. 17A-D) expressing Mut-p53 with a mutation at positions 241 within the DBD. […] Cells were harvested, and 60% of the cells were taken for Annexin-PI apoptosis assay and 40% for extraction of RNA, cDNA synthesis and real time PCR analysis. Apoptosis was assayed using the Annexin-V staining kit (Roche, REF 11 988 549 001). Non-fixed cells were stained with both anti Annexin FITC conjugated antibody to detect apoptotic cells, and PI (propidium-iodide) to stain dead cells permeable to the compound, according to the manufacturer's instructions. Stained cells were then analyzed by flow cytometry. A total of 10,000 cells was counted for each sample and divided into four subpopulations according to staining intensity: cells negative for both PI and Annexin (−PI, −Annexin) are termed live; cells negative for PI and positive for Annexin (−PI, +Annexin) are going through early stages of apoptosis; cells positive for PI and Annexin (+PI, +Annexin) are dead cells that underwent an apoptotic process; and cells positive for PI and negative for Annexin (+PI, −Annexin) are assumed to be dead cells that died a non-apoptotic death such as necrosis. […] Treatment with pCAPs 242 and 250 causes a rapid increase in apoptotic cells followed by cell death and after 5 hours of treatment 12% of cells are Annexin positive and about 7% are dead. After 16 and 24 hours of treatment with pCAP 250 the apoptotic population increases to about 27% and dead cells accumulate to 29% at 16h and 36% after 24h. […] CD95 and Btg-2 expression is elevated up to 6 fold over non-treated cells.

With HANLHHTRRRRRRRRRRR [pCAP-146] the “Mut-p53 specific effect on cell viability, SKBR3 shCon cells” value [1] was “almost no specific effect” and the “Mut-p53 specific effect on cell viability, MDA-MB-231 shCon cells” value [2] was “significant decrease”.

In the case of YRRLLIGMMW [pCAP-25], the “solubility in DMSO” value (Solubility in DMSO) is reported as “insoluble”.

For myr-RRHSTPHPD [pCAP-250], the “p21 and PUMA mRNA expression increase over time” value [3] was “up to 10 fold”, the apoptotic population ([4]; after 16 and 24 hours of treatment) was “about 27%” and the Annexin positive cells ([4]; after 5 hours of treatment) was 12%. The dead cells ([4]; after 5 hours of treatment) was “about 7%”, the dead cells ([4]; after 24h) was 36% and the dead cells ([4]; at 16h) was 29%.
